{
  "source": "patent US20250109120A1",
  "about": "“INDOLINE DERIVATIVES FOR TREATMENT AND/OR PREVENTION OF TUMOR OR CELL PROLIFERATIVE AND FIBROSIS DISEASES” (NATIONAL TAIWAN UNIVERSITY, priority 2023, published 2025)",
  "key": {"A549 cells [1]": {"system": "A549 cells", "assay": "MTT cell viability assay", "format": "cell-based, human", "conditions": "12, 24 and 48 h, up to 10 μM", "protocol": "FIGS. 4A-4B show the inhibition of epithelial-to-mesenchymal transition protein expressions by CDK8 inhibitors in human alveolar epithelial cells. […] Cell lysates were subjected to a Western blot analysis using the indicated antibodies. Results are shown as the mean t SEM from three independent experiments. *p<0.05, and ***p<0.001 compared to the control group; #p<0.05, ##p<0.01, and ###p<0.001 compared to the TGF-β1-treated group. […] Cell viabilities were determined by an MTT assay. Results are shown as the mean t SEM of three independent experiments.\nCell cytotoxicity was measured by a colorimetric MTT assay. […] After various treatments, 1 mg/mL of MTT was added, and the plates were incubated at 37° C. for an additional 2 h. Then cells were pelleted and lysed with 10% sodium dodecylsulfate (SDS) with 0.01 M HCl, and the absorbance at 570 nm was measured on a microplate reader."}, "DU145 cells [2]": {"system": "DU145 cells", "assay": "TGF-β1-induced morphology change and wound migration", "format": "cell-based, human", "conditions": "TGF-β1 10 ng/mL", "protocol": "Images of the morphology of cells were taken at ×100 magnification. […] The cells were incubated with or without TGF-β1 (10 ng/mL) and compound k (2.5 and 10 μM), allowed to migrate into the wound area for 48 h and photographed. Cell migration into the wound was quantified using ImageJ software; the white solid line indicates time zero. The quantitative assessment of the mean number of cells in the scratch area is expressed as the mean t SEM from at least three independent experiments (***p<0.001 vs. control group; ##p<0.01 and ###p<0.001 vs. TGF-β1 treatment group). (C) PC-3 cells were incubated with 10 μM compound k/senexin A for 1 h, subsequently treated with TGF-β1 (10 ng/mL) for 24 h and incubated with the indicated antibodies and DAPI. The immunofluorescence images were photographed by a ZEISS ApoTome.2 microscope. Images were taken at 600× magnification."}, "PC-3 cells": {"system": "PC-3 cells", "assay": "MTT cell cytotoxicity assay", "format": "cell-based, human", "protocol": "(§1) FIGS. 2A-2D show the evaluation of CDK8 inhibition by compound k. […] Cell viability was measured by MTT assay, and the 50% inhibitory concentration (IC50) values were calculated by a sigmoidal dose-response equation. […] Whole-cell lysates were subjected to western blotting with the indicated antibodies. The results are shown as the mean t SEM from at least three independent experiments (*p<0.05, **p<0.01, and ***p<0.001 vs. control group; #p<0.05 vs. relevant control).\n(§2) Cell cytotoxicity was evaluated using the MTT assay. […] Then, 0.5 mg/mL MTT was added, and the plates were incubated for an additional 2 h at 37° C. The cells were then pelleted and lysed in 100 μL of dimethyl sulfoxide, and the absorbance at 550 nm was measured with a microplate reader."}, "DU145 cells [3]": {"system": "DU145 cells", "assay": "MTT cell cytotoxicity assay", "format": "cell-based, human", "protocol": "as §1, §2"}, "A549 cells [4]": {"system": "A549 cells", "assay": "Nuclear p-Smad3 T179 and RNA polymerase II pS2/S5 after TGF-β1, fractionation and western blot", "format": "cell-based, human", "conditions": "compound k 5 μM, senexin A 5 μM, pirfenidone 1 mM; TGF-β1 10 ng/ml 3 h", "protocol": "FIGS. 8A-8B show the inhibitory effects of cellular distributions of TGF-β1-induced p-Smad3 T179, RNA polymerase II pS2/S5, and Smad3 after treatment with compound k. Human alveolar epithelial A549 cells were incubated with compound k (5 μM), senexin A (5 μM), or pirfenidone (1 mM) for 1 h, followed by stimulation with TGF-β1 (10 ng/ml) for 3 h. Protein expressions in the cytoplasmic and nuclear fractions were subjected to a Western blot analysis using the indicated antibodies. α-Tubulin and histone H3 served as loading controls for the cytoplasmic and nuclear fractions, respectively. Results are shown as the mean±SEM of three independent experiments. **p<0.01 and ***p<0.001 compared to the control group; #p<0.05 and ##p<0.01 compared to the TGF-β1-treated group.\nCells (106) were incubated for 10 min at 4° C. in lysis buffer (20 mM HEPES at pH 7.4, 2 mM EGTA, 50 mM β-glycerophosphate, 0.1% Triton X-100, 10% glycerol, 1 mM DTT, 1 μg/mL of leupeptin, 5 μg/mL of aprotinin, 1 mM phenylmethylsulfonyl fluoride, and 1 mM sodium orthovanadate), scraped off, incubated on ice for an additional 10 min, and centrifuged at 17,000 g for 30 min at 4° C. Protein samples (20 μg) were then electrophoresed on SDS-polyacrylamide gel electrophoresis (PAGE) gels and transferred to a nitrocellulose membrane, which was then blocked by incubation for 30 min at room temperature with 5% bovine serum albumin (BSA) in Tris-buffered saline with 0.1% Tween-20 (TBST). Immunoblotting was performed by overnight incubation at 4° C. with primary antibodies in TBST, followed by incubation for 1 h at room temperature with horseradish peroxidase (HRP)-conjugated secondary antibodies. Bound antibodies were measured using enhanced chemiluminescence (ECL) reagent (GE Healthcare, UK) and exposed to photographic film.\nA Nuclear/Cytosol Fractionation Kit (Biovision, USA) was used to separate the cytosolic and nuclear fractions. […]"}, "CDK8": {"target": "CDK8 (Homo sapiens (Human), UniProt P49336)", "sequence (P49336 whole entry, looked up)": "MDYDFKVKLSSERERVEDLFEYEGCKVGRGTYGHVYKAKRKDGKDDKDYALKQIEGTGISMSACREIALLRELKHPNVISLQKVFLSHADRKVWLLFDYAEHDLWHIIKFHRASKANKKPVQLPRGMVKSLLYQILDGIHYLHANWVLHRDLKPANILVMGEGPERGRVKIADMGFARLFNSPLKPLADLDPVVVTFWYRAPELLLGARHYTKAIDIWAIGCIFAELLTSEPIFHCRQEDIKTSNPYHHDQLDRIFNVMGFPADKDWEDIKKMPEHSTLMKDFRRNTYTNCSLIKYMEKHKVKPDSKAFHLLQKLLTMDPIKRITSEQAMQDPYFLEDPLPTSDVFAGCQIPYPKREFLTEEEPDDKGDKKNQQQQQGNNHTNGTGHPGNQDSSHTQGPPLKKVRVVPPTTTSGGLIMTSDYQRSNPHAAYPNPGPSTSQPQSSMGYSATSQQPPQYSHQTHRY", "sequence (P24863 whole entry partner, looked up)": "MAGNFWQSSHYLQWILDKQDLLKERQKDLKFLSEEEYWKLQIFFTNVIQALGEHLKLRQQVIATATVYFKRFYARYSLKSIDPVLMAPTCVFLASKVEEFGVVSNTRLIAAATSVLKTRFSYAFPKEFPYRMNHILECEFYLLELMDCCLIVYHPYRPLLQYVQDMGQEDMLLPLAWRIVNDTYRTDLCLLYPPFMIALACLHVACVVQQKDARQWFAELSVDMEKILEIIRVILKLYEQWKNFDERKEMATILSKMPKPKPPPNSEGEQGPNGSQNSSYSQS", "assay": "LanthaScreen Eu Binding Assay, Thermo Fisher SelectScreen kinase service", "protocol": "Compounds were tested for kinase inhibitory activity using the Thermo Fisher SelectScreen service (www.thermofisher.com/selectscreen). For CDK8, the LanthaScreen Eu Binding Assay was used. Briefly, the assay employed utilizes a fluorescent tracer to a given kinase. This is used to detect the addition of an anti-tag antibody. When the tracer and antibody bind to the targeted kinase, the Forster resonance energy transfer is measured. When a kinase inhibitor is added to the assay, the tracer/kinase binding will be disrupted, producing low FRET detection and indicating kinase inhibitory activity. Evaluation of kinase activity of additional kinase targets utilized the LanthaScreen binding assay or the Z′-Lyte activity assay provided by Thermo Fisher SelectScreen service. The IC50 values were determined using sequential doses, and the inhibition curves were provided by Thermo Fisher Scientific.\nThe fragment-based drug design strategy in this study led to optimized CDK8 inhibitors with promising results. CDK8-inhibitory activities of the compounds (a-n) designed by this fragment-based drug design strategy were tested using the SelectScreen kinase service of ThermoFisher Scientific. The inhibitory effects of the 14 compounds and the referenced compound were tested at a concentration of 10 μM."}},
  "data": [
    {"smiles": "CNC(=O)c1cc(Oc2ccc(NS(=O)(=O)c3ccc4c(c3)C(=C(C)C)C(=O)N4)c(F)c2)ccn1", "note": "[Compound k, 4-(3-Fluoro-4-((2-oxo-3-(propan-2-ylidene)indoline)-5-sulfonamido)phenoxy)-N-methylpicolinamide]", "values": [
      {"measurement": "cell viability", "setting": "A549 cells [1]", "result": "did not significantly change"},
      {"measurement": "TGF-β1-induced migration (wound closure)", "setting": "DU145 cells [2]; 2.5 and 10 μM, 48 h", "result": "significantly inhibited"},
      {"measurement": "TGF-β1-induced morphological transition", "setting": "DU145 cells [2]; 24 h", "result": "appeared to reverse these effects"},
      {"measurement": "IC50", "setting": "PC-3 cells; PC-3, 24 h", "result": "> 30", "unit": "µM"},
      {"measurement": "IC50", "setting": "PC-3 cells; PC-3, 72 h", "result": "> 30", "unit": "µM"},
      {"measurement": "IC50", "setting": "DU145 cells [3]; DU145, 24 h", "result": "> 30", "unit": "µM"},
      {"measurement": "IC50", "setting": "DU145 cells [3]; DU145, 72 h", "result": "> 30", "unit": "µM"},
      {"measurement": "phosphorylation of p-Smad3 T179 and RNA Pol II pSer2/5", "setting": "A549 cells [4]", "result": "significantly reversed"},
      {"measurement": "CDK8 inhibition percentage", "setting": "CDK8; 150 nM, 54-kinase panel", "result": 64, "unit": "%"},
      {"measurement": "CDK8 Inhibition percentage at 10 μM", "setting": "CDK8; 10 μM", "result": 102, "unit": "%"},
      {"measurement": "IC50", "setting": "CDK8; read-out: Inhibition of CDK8 IC50", "result": 0.129, "unit": "µM"},
      {"measurement": "higher inhibitory potency compared to compound j", "setting": "CDK8; vs compound j", "result": "~1.5", "unit": "fold"},
      {"measurement": "increase in CDK8 inhibitory activity compared to E966-0530", "setting": "CDK8; vs original compound E966-0530", "result": 13, "unit": "fold"}
    ]}
  ]
}
